Values joined by “and” are separate entries in the source; they are usually repeats but may differ in a detail not shown here. Equal entries are not always repeated.
Legend:
Rattus norvegicus [1] = assay: Tested for the diuretic activity by measuring the urinary volume after peroral administering 34.1 uM/Kg of drug in rats; format: ADME, organism-based, Urine; settings: in vivo, po
Canis familiaris [2] = species: Canis familiaris; assay: Systemic cardio vascular Hemodynamics of total peripheral resistance was measured in Beagle dogs in pretreatment control group; format: functional, Canis lupus familiaris, Heart
Canis familiaris [3] = assay: Tested for the diuretic activity by measuring the urinary volume after intravenous administering 34.1 uM/Kg of drug in dogs; format: ADME, organism-based, Canis lupus familiaris, Urine; settings: dog, in vivo
Canis familiaris [4] = assay: Total electrolytic excretion of chlorine in urine of dogs after intravenous administration of 34.1 uM/Kg of drug; format: ADME, organism-based, Canis lupus familiaris; settings: dog, in vivo
Canis familiaris [5] = species: Canis familiaris; assay: Systemic cardio vascular Hemodynamics of stroke index was measured in Beagle dogs after giving the dose of MNX plus the drug; format: functional, Canis lupus familiaris, Heart
Canis familiaris [6] = assay: Total electrolytic excretion of sodium in urine of dogs after intravenous administration of 30.3 uM/Kg of drug; format: ADME, organism-based, Canis lupus familiaris; settings: dog, in vivo
Rattus norvegicus [7] = assay: Ratio of Total electrolytic excretion of sodium and potassium in urine of rats after peroral administration of 68.1 uM/Kg of drug; format: ADME, organism-based; settings: in vivo, po
Canis familiaris [8] = species: Canis familiaris; assay: Systemic cardio vascular Hemodynamics of heart rate was measured in Beagle dogs after giving the dose of MNX; format: functional, Canis lupus familiaris
Canis familiaris [9] = assay: Total electrolytic excretion of chlorine in urine of dogs after intravenous administration of 9.09 uM/Kg of drug; format: ADME, organism-based, Canis lupus familiaris; settings: dog, in vivo
Canis familiaris [10] = species: Canis familiaris; assay: Tissue vascular resistance of right atrium was measured in Beagle dogs after giving the dose of MNX plus the drug; format: functional, Canis lupus familiaris, Cardiac atrium
Canis familiaris [11] = assay: Tested for the diuretic activity by measuring the urinary volume after peroral administering 50.8 uM/Kg of drug in dogs; format: ADME, organism-based, Canis lupus familiaris, Urine; settings: dog, in vivo, po
Rattus norvegicus [12] = assay: Total electrolytic excretion of sodium in urine of rats after peroral administration of 341 uM/Kg of drug; format: ADME, organism-based; settings: in vivo, po
Canis familiaris [13] = species: Canis familiaris; assay: Tissue vascular resistance of pancreas was measured in Beagle dogs after giving the dose of MNX; format: functional, Canis lupus familiaris
Rattus norvegicus [14] = assay: Ratio of Total electrolytic excretion of sodium and potassium in urine of rats after peroral administration of 341 uM/Kg of drug; format: ADME, organism-based; settings: in vivo, po
Canis familiaris [15] = assay: Total electrolytic excretion of chlorine in urine of dogs after peroral administration of 102 uM/Kg of drug; format: ADME, organism-based, Canis lupus familiaris; settings: dog, in vivo, po
Canis familiaris [16] = assay: Total electrolytic excretion of chlorine in urine of dogs after peroral administration of 50.8 uM/Kg of drug; format: ADME, organism-based, Canis lupus familiaris; settings: dog, in vivo, po
Canis familiaris [17] = assay: Total electrolytic excretion of sodium in urine of dogs after peroral administration of 68.1 uM/Kg of drug; format: ADME, organism-based, Canis lupus familiaris; settings: dog, in vivo, po
Rattus norvegicus [18] = assay: Ratio of Total electrolytic excretion of sodium and potassium in urine of rats after intravenous administration of 34.1 uM/Kg of drug; format: ADME, organism-based; settings: in vivo
Canis familiaris [19] = assay: Tested for the diuretic activity by measuring the urinary volume after intravenous administering 3.03 uM/Kg of drug in dogs; format: ADME, organism-based, Canis lupus familiaris, Urine; settings: dog, in vivo
Canis familiaris [20] = assay: Tested for the diuretic activity by measuring the urinary volume after peroral administering 34.1 uM/Kg of drug in dogs; settings: dog, in vivo, po
Rattus norvegicus [21] = assay: Ratio of Total electrolytic excretion of sodium and potassium in urine of rats after peroral administration of 34.1 uM/Kg of drug; format: ADME, organism-based; settings: in vivo, po
Canis familiaris [22] = species: Canis familiaris; assay: Systemic cardio vascular Hemodynamics of mean arterial pressure was measured in Beagle dogs after giving the dose of MNX plus the drug; format: functional, Canis lupus familiaris, Heart
Rattus norvegicus [23] = assay: Total electrolytic excretion of sodium in urine of rats after peroral administration of 102 uM/Kg of drug; format: ADME, organism-based; settings: in vivo, po
Rattus norvegicus [24] = assay: Ratio of Total electrolytic excretion of sodium and potassium in urine of rats after intravenous administration of 3.03 uM/Kg of drug; format: ADME, organism-based; settings: in vivo
Canis familiaris [25] = species: Canis familiaris; assay: Tissue vascular resistance of left ventricle was measured in Beagle dogs before treatment after giving the dose of MNX plus the drug; format: functional, Canis lupus familiaris, Heart left ventricle
Rattus norvegicus [26] = assay: Ratio of Total electrolytic excretion of sodium and potassium in urine of rats after intravenous administration of 30.3 uM/Kg of drug; format: ADME, organism-based; settings: in vivo
Canis familiaris [27] = species: Canis familiaris; assay: Systemic cardio vascular Hemodynamics of mean arterial pressure was measured in Beagle dogs in pretreatment control group; format: functional, Canis lupus familiaris, Heart
Canis familiaris [28] = species: Canis familiaris; assay: Tissue vascular resistance of large intestine was measured in Beagle dogs after giving the dose of MNX plus the drug; format: functional, Canis lupus familiaris
Canis familiaris [29] = assay: Total electrolytic excretion of potassium in urine of dogs after intravenous administration of 3.03 uM/Kg of drug; format: ADME, organism-based, Canis lupus familiaris; settings: dog, in vivo
Canis familiaris [30] = assay: Total electrolytic excretion of sodium in urine of dogs after intravenous administration of 3.03 uM/Kg of drug; format: ADME, organism-based, Canis lupus familiaris; settings: dog, in vivo
Canis familiaris [31] = assay: Tested for the diuretic activity by measuring the urinary volume after intravenous administering 30.3 uM/Kg of drug in dogs; format: ADME, organism-based, Canis lupus familiaris, Urine; settings: dog, in vivo
Canis familiaris [32] = species: Canis familiaris; assay: Tissue vascular resistance of left ventricle was measured in Beagle dogs after giving the dose of MNX; format: functional, Canis lupus familiaris, Heart left ventricle
Canis familiaris [33] = assay: Total electrolytic excretion of chlorine in urine of dogs after intravenous administration of 30.3 uM/Kg of drug; format: ADME, organism-based, Canis lupus familiaris; settings: dog, in vivo
Canis familiaris [34] = species: Canis familiaris; assay: Tissue vascular resistance of left ventricle was measured in Beagle dogs before treatment; format: functional, Canis lupus familiaris, Heart left ventricle
Canis familiaris [35] = assay: Tested for the diuretic activity by measuring the urinary volume after peroral administering 34.1 uM/Kg of drug in dogs; format: ADME, organism-based, Canis lupus familiaris, Urine; settings: dog, in vivo, po
Canis familiaris [36] = assay: Tested for the diuretic activity by measuring the urinary volume after intravenous administering 9.09 uM/Kg of drug in dogs; format: ADME, organism-based, Canis lupus familiaris, Urine; settings: dog, in vivo
Canis familiaris [37] = assay: Total electrolytic excretion of sodium in urine of dogs after peroral administration of 34.1 uM/Kg of drug; format: ADME, organism-based, Canis lupus familiaris; settings: dog, in vivo, po
Canis familiaris [38] = assay: Total electrolytic excretion of sodium in urine of dogs after intravenous administration of 34.1 uM/Kg of drug; format: ADME, organism-based, Canis lupus familiaris; settings: dog, in vivo
Rattus norvegicus [39] = assay: Total electrolytic excretion of chlorine in urine of rats after peroral administration of 341 uM/Kg of drug; format: ADME, organism-based; settings: in vivo, po
Canis familiaris [40] = species: Canis familiaris; assay: Systemic cardio vascular Hemodynamics of cardiac index was measured in Beagle dogs in pretreatment control group; format: functional, Canis lupus familiaris, Heart
Canis familiaris [41] = assay: Total electrolytic excretion of potassium in urine of dogs after intravenous administration of 34.1 uM/Kg of drug; format: ADME, organism-based, Canis lupus familiaris; settings: dog, in vivo
Canis familiaris [42] = species: Canis familiaris; assay: Tissue vascular resistance of pancreas was measured in Beagle dogs after giving the dose of MNX plus the drug; format: functional, Canis lupus familiaris
Rattus norvegicus [43] = assay: Total electrolytic excretion of chlorine in urine of rats after peroral administration of 102 uM/Kg of drug; format: ADME, organism-based; settings: in vivo, po
Canis familiaris [44] = assay: Total electrolytic excretion of potassium in urine of dogs after intravenous administration of 9.09 uM/Kg of drug; format: ADME, organism-based, Canis lupus familiaris; settings: dog, in vivo
Canis familiaris [45] = species: Canis familiaris; assay: Systemic cardio vascular Hemodynamics of mean arterial pressure was measured in Beagle dogs after giving the dose of MNX; format: functional, Canis lupus familiaris, Heart
Canis familiaris [46] = species: Canis familiaris; assay: Tissue vascular resistance of right atrium was measured in Beagle dogs before treatment; format: functional, Canis lupus familiaris, Cardiac atrium
Rattus norvegicus [47] = assay: Ratio of Total electrolytic excretion of sodium and potassium in urine of rats after intravenous administration of 9.09 uM/Kg of drug; format: ADME, organism-based; settings: in vivo
Canis familiaris [48] = assay: Total electrolytic excretion of sodium in urine of dogs after intravenous administration of 9.09 uM/Kg of drug; format: ADME, organism-based, Canis lupus familiaris; settings: dog, in vivo
Canis familiaris [49] = species: Canis familiaris; assay: Systemic cardio vascular Hemodynamics of total peripheral resistance was measured in Beagle dogs after giving the dose of MNX; format: functional, Canis lupus familiaris, Heart
Canis familiaris [50] = species: Canis familiaris; assay: Systemic cardio vascular Hemodynamics of cardiac index was measured in Beagle dogs after giving the dose of MNX plus the drug; format: functional, Canis lupus familiaris, Heart
Canis familiaris [51] = assay: Total electrolytic excretion of potassium in urine of dogs after intravenous administration of 30.3 uM/Kg of drug; format: ADME, organism-based, Canis lupus familiaris; settings: dog, in vivo
Canis familiaris [52] = assay: Total electrolytic excretion of sodium in urine of dogs after peroral administration of 102 uM/Kg of drug; format: ADME, organism-based, Canis lupus familiaris; settings: dog, in vivo, po
Rattus norvegicus [53] = assay: Total electrolytic excretion of potassium in urine of rats after peroral administration of 341 uM/Kg of drug; format: ADME, organism-based; settings: in vivo, po

C1CCC(N=C(NC2CCCCC2)N2CCOCC2)CC1
V (Rattus norvegicus [1]): 6.6 mL | TPR (Canis familiaris [2]): 0.56 mmHg·min·kg/mL | V (Canis familiaris [3]): 132 mL | Excretion Cl- (Canis familiaris [4]): 16.4 m equiv | SI (Canis familiaris [5]): 1.1 ml beat-1 kg-1 | Excretion Na+ (Canis familiaris [6]): 13.1 m equiv | Ratio (Rattus norvegicus [7]): 8.6 | HR (Canis familiaris [8]): 138 beats min-1 | Excretion Cl- (Canis familiaris [9]): 9.6 m equiv | TVR (Canis familiaris [10]): 573 mmHg·min·g/mL | V (Canis familiaris [11]): 62 mL | Excretion Na+ (Rattus norvegicus [12]): 1.73 m equiv | TVR (Canis familiaris [13]): 43 mmHg·min·g/mL | Ratio (Rattus norvegicus [14]): 5 | Excretion Cl- (Canis familiaris [15]): 19.6 m equiv | Excretion Cl- (Canis familiaris [16]): 9.8 m equiv | Excretion Na+ (Canis familiaris [17]): 14 m equiv | Ratio (Rattus norvegicus [18]): 17.4 | V (Canis familiaris [19]): 64 mL | V (Canis familiaris [20]): 81 mL | Ratio (Rattus norvegicus [21]): 3.6 and 9.6 and 9.1 | MAP (Canis familiaris [22]): 118 mmHg | Excretion Na+ (Rattus norvegicus [23]): 1.56 m equiv | Ratio (Rattus norvegicus [24]): 8.4 | TVR (Canis familiaris [25]): 100 mmHg·min·g/mL | Ratio (Rattus norvegicus [26]): 8.6 | MAP (Canis familiaris [27]): 101 mmHg | TVR (Canis familiaris [28]): 340 mmHg·min·g/mL | Excretion K+ (Canis familiaris [29]): 1.2 m equiv | Excretion Na+ (Canis familiaris [30]): 8.1 m equiv | V (Canis familiaris [31]): 114 mL | TVR (Canis familiaris [32]): 10 mmHg·min·g/mL | Excretion Cl- (Canis familiaris [33]): 12.5 m equiv | TVR (Canis familiaris [34]): 112 mmHg·min·g/mL | V (Canis familiaris [35]): 77 mL | V (Canis familiaris [36]): 87 mL | Excretion Na+ (Canis familiaris [37]): 9.9 m equiv | Excretion Na+ (Canis familiaris [38]): 18.6 m equiv | Excretion Cl- (Rattus norvegicus [39]): 1.64 m equiv | CI (Canis familiaris [40]): 186 mL/min/kg | Excretion K+ (Canis familiaris [41]): 1.3 m equiv | TVR (Canis familiaris [42]): 219 mmHg·min·g/mL | Excretion Cl- (Rattus norvegicus [43]): 1.65 m equiv | Excretion K+ (Canis familiaris [44]): 1.7 m equiv | MAP (Canis familiaris [45]): 75 mmHg | TVR (Canis familiaris [46]): 635 mmHg·min·g/mL | Ratio (Rattus norvegicus [47]): 8.7 | Excretion Na+ (Canis familiaris [48]): 11.5 m equiv | TPR (Canis familiaris [49]): 0.3 mmHg·min·kg/mL | CI (Canis familiaris [50]): 138 mL/min/kg | Excretion K+ (Canis familiaris [51]): 1.6 m equiv | Excretion Na+ (Canis familiaris [52]): 22.5 m equiv | Excretion K+ (Rattus norvegicus [53]): 0.34 m equiv

From ChEMBL document CHEMBL1127385, “Synthesis and diuretic activity of alkyl- and arylguanidine analogs of N,N'-dicyclohexyl-4-morpholinecarboxamidine in rats and dogs” (J Med Chem, 1994)
